The values that follow come from patent US5310745A, “Antiviral compounds” (priority 1992, dated 1994).

Holding throughout (format): cell-based
Data set [1] relates to Sheep choroid plexus (SCP) cells. In words: Toxicity of compounds in control wells without virus, graded morphologically. As to conditions: 0 to 4 scale, Table 1. The arrangement: key: 0: no toxicity; 4: total cell lysates. Here is the method:
(§1) Sheep choroid plexus (SCP) cells were obtained from American Type Culture Collection (ATCC) catalogue number CRL 1700 and were routinely passaged in vitro in Dulbecco's Modified Eagles (DME) medium supplemented with 20% fetal bovine serum (FBS). SCP cells were passaged once per week at a 1:2 or 1:3 split ratio. Visna was titrated by plaque assay in six-well plates. Virus pools were stored at -70° C.
(§2) SCP cells were cultured in 6-well plates to confluence. Wells were washed two times with serum free Minimal Essential Medium (MEM) to remove FBS. 0.2 ml of virus was added per well in MEM supplemented with 4 mM glutamine and gentamycin. After 1 hour adsorption, the virus was aspirated from each well. The appropriate concentration of each compound in 5 ml of Medium 199 (M-199) supplemented With 2% lamb serum, 4 mM glutamine, 0.5% agarose and gentamycin was added to each well. Cultures were incubated at 37° C. in a humidified 5% CO2 incubator for 3-4 weeks. To terminate the test: cultures were fixed in 10% formalin, the agar removed, the monolayers stained with 1% crystal violet and plaques counted. Each compound concentration was run in triplicate. […] 0 is no toxicity observed while 4 is total lysing of the cell monolayer.

The next data set has as its system visna virus. In words: Plaque reduction assay, inhibition of visna virus in vitro. Also noted: key to Antiviral Activity: A: active compound; I: inactive compound. Conditions: for Antiviral Activity: Table 1; for % Plaque Reduction / inhibition at 1 µM / inhibition at 10 µM / inhibition at 100 µM / inhibition at 1000 µM: Table 2; for inhibition at 1 µM / inhibition at 10 µM / inhibition at 100 µM / inhibition at 1000 µM: Visna-maedi virus; for inhibition at 1 µM: 0.001 mM.
Description: Visna virus, a lentivirus genetically very similar to the AIDS virus, is pathogenic for sheep and goats. See Sonigo et al., Cell 42, 369-382 (1985); Haase, Nature 322, 130-136 (1986). Inhibition of visna virus replication in vitro as a useful model for human immunodeficiency virus (HIV) and its inhibition by test compounds has been described by Franket al., Antimicrobial Agents and Chemotherapy 31 (9), 1369-1374 (1987). The N-butyl derivative of 1,5-dideoxy-1,5-imino-D-glucitol, also referred to as n-butyl-deoxynojirimycin (N-Bu-DNJ), was used as a control standard for comparison with various novel compounds of this invention.
Various compounds as prepared above were tested for inhibition of visna virus in vitro in a plaque reduction assay as follows:
as §1, §2

In data set [2] the test system is Sheep choroid plexus (SCP) cells. The data set is described as follows: Toxicity of compounds in control wells without virus, graded morphologically. As to conditions: graded 0 to 4, Table 2. Here is the method: as §1, §2
The test system is the same in data set [3]. The description is as above. Also noted: key: 0: no toxicity observed; 4: total lysing of the cell monolayer. As to conditions: graded 0 to 4, Table 2. Here is the method: as §1, §2

The structures appear in SMILES notation.

On to `CCOC(=O)CC(=O)N1C[C@H](OC(C)=O)[C@@H](OC(C)=O)[C@H](OC(C)=O)[C@H]1COC(C)=O` [Example 8, 1,5-(Ethylmalonylimino)-1,5-dideoxy-D-glucitol, tetraacetate], for which the Toxicity in data set [1] (0.1 mM) and in data set [1] (1.0 mM) was 0 each time. Besides, the “Antiviral Activity” value in the data set on visna virus (0.1 mM) and in the data set with visna virus (1.0 mM) was “A” in each case.

For the compound `CCCCN1C[C@H](OC(C)=O)[C@@H](OC(C)=O)[C@H](OC(C)=O)[C@H]1COC(C)=O` [Example 7, 1,5-(Butylimino)-1,5-dideoxy-D-glucitol, tetraacetate], the Toxicity in data set [1] (0.1 mM), in data set [1] (0.5 mM) and in data set [1] (1.0 mM) was 0 each time. Moreover, the “Antiviral Activity” value in the data set with visna virus (0.1 mM), in the data set with visna virus (0.5 mM) and in the data set on visna virus (1.0 mM) was “A” throughout.

Regarding `CC(=O)OC[C@@H]1[C@@H](OC(C)=O)[C@H](OC(C)=O)[C@@H](OC(C)=O)CN1C(=O)CCOc1ccc(Cl)cc1` [Example 51, 1,5-Dideoxy-1,5-[[3-(4-chlorophenoxy)-1-oxopropyl]-imino]-D-glucitol, tetraacetate], the Toxicity in data set [2] (0.1 mM) stood at 1; in data set [3] (0.001 mM), 0; in data set [3] (0.01 mM) it was 0; in data set [3] (1.0 mM), 4. The “% Plaque Reduction” value in the data set on visna virus (1.0 mM) was “Toxic”. For the same compound, the inhibition (as a rule, the change of the read-out against control, counted positive when it falls) at 1 µM with visna virus was determined as 12%. Also, the inhibition at 10 µM with visna virus (0.01 mM) came to 57%. In the data set with visna virus (0.1 mM), this compound yielded an inhibition at 100 µM of 91%.

`CCCCN1C[C@H](OC(C)=O)[C@@H](OC(C)=O)[C@@H]2O[C@H](c3ccccc3)OC[C@H]21` [Example 24, 1,5-(Butylimino)-1,5-dideoxy-4R,6-O-(phenylmethylene)-D-glucitol, diacetate] displayed a Toxicity in data set [1] (1.0 mM) of 0. Further, the “Antiviral Activity” value with visna virus (1.0 mM) is on record as “A”.

Turning to `CC(=O)OC[C@@H]1[C@@H](OC(C)=O)[C@H](OC(C)=O)[C@@H](OC(C)=O)CN1CCCC(F)(F)F` [Example 63, 1,5-(4,4,4-Trifluorobutylimino)-1,5-dideoxy-D-glucitol, tetraacetate], the Toxicity in data set [2] (1.0 mM) is listed as 2; in data set [3] (0.1 mM), 0. Further, the inhibition at 100 µM in the data set on visna virus (0.1 mM) worked out at 2%. In the data set with visna virus (1.0 mM), this compound displayed an inhibition at 1000 µM of 90%.

Consider `CCCC(C)CN1C[C@H](OC(C)=O)[C@@H](OC(C)=O)[C@H](OC(C)=O)[C@H]1COC(C)=O` (stereo partly drawn) [Example 33, 1,5-[(2-Methylpentyl)imino]-1,5-dideoxy-D-glucitol, tetraacetate], for which the Toxicity in data set [2] (1.0 mM) stood at 3; in data set [3] (0.01 mM), 0; in data set [3] (0.1 mM) it was 0. Besides, the “% Plaque Reduction” value in the data set with visna virus (0.01 mM) is 21%; in the data set with visna virus (0.1 mM), 28%; in the data set on visna virus (1.0 mM), 63%.

`CC(=O)OC[C@H]1NC[C@H](OC(C)=O)[C@@H](OC(C)=O)[C@@H]1OC(C)=O` [Example 3, 1,5-Dideoxy-1,5-imino-D-glucitol, tetraacetate]: the Toxicity in data set [1] (0.5 mM) and in data set [1] (1.0 mM) was 0 each time. For the same compound, the “Antiviral Activity” value in the data set with visna virus (0.5 mM) and in the data set with visna virus (1.0 mM) was “A” in each case.

With `CCCCN1C[C@H](OC(=O)C(C)(C)C)[C@@H](OC(=O)C(C)(C)C)[C@H](OC(=O)C(C)(C)C)[C@H]1COC(=O)C(C)(C)C` [Example 50A], the Toxicity is 1 in data set [2] (0.1 mM), 0 in data set [3] (0.01 mM) and 4 in data set [3] (1.0 mM). For the same compound, the “% Plaque Reduction” value in the data set on visna virus (1.0 mM) is recorded as “Toxic”. In the data set with visna virus (0.01 mM), this compound showed an inhibition at 10 µM of 20%. The compound further displayed an inhibition at 100 µM in the data set with visna virus (0.1 mM) of 49%.

As for `CC(=O)OC[C@@H]1[C@@H](OC(C)=O)[C@H](OC(C)=O)[C@@H](OC(C)=O)CN1C(=O)c1ccc(-c2ccccc2)cc1` [Example 53, 1,5-[([1,1'-biphenyl]-4-ylcarbonyl)imino]-1,5-dideoxy-D-glucitol, tetraacetate], the Toxicity in data set [2] (0.1 mM) stood at 2; in data set [3] (0.001 mM) it was 0; in data set [3] (0.01 mM) it was 0; in data set [3] (1.0 mM) it was 4. In addition, the “% Plaque Reduction” value with visna virus (1.0 mM) is “Toxic”. The inhibition at 1 µM with visna virus worked out at 28%. The same compound registered an inhibition at 10 µM in the data set on visna virus (0.01 mM) of 81%. This compound also had an inhibition at 100 µM in the data set on visna virus (0.1 mM) of 100%.

Take `CC(=O)OC[C@@H]1[C@@H](OC(C)=O)[C@H](OC(C)=O)[C@@H](OC(C)=O)CN1C(=O)Cc1ccccc1` [Example 4, 1,5-(Phenylacetylimino)-1,5-dideoxy-D-glucitol-tetraacetate]: the Toxicity in data set [1] (0.5 mM) and in data set [1] (1.0 mM) was 0 each time. Also, the “Antiviral Activity” value in the data set with visna virus (0.5 mM) and in the data set on visna virus (1.0 mM) was “A” in each case.

In the case of `CCCCN1C[C@H](OC(C)=O)[C@@H](OC(C)=O)[C@H](O)[C@H]1CO` [Example 28, 1,5-(Butylimino)-1,5-dideoxy-D-glucitol, 2,3-diacetate], the Toxicity in data set [2] (0.1 mM) is 2; in data set [3] (1.0 mM), 4. The compound further showed an inhibition at 100 µM in the data set on visna virus (0.1 mM) of 44%. Also, at 1000 µM the inhibition with visna virus (1.0 mM) was 87%.

As for `CC(=O)OC[C@@H]1[C@@H](OC(C)=O)[C@H](OC(C)=O)[C@@H](OC(C)=O)CN1C(=O)c1cccnc1` [Example 35, 1,5-[(3-Nicotinoyl)imino]-1,5-dideoxy-D-glucitol, tetraacetate], the Toxicity in data set [2] (0.1 mM) is given as 1; in data set [2] (1.0 mM) it was 3; in data set [3] (0.01 mM), 0. The inhibition at 10 µM in the data set with visna virus (0.01 mM) is 10%. The same compound had an inhibition at 100 µM in the data set with visna virus (0.1 mM) of 90%. In the data set with visna virus (1.0 mM), this compound came in with an inhibition at 1000 µM of 94%.

Turning to `CCCCN1C[C@H](OC(=O)CCC)[C@@H](OC(=O)CCC)[C@H](O)[C@H]1CO` [Example 38, 1,5-(Butylimino)-1,5-dideoxy-D-glucitol, 2,3-dibutyrate], the Toxicity in data set [2] (0.1 mM) turned out to be 2; in data set [3] (0.001 mM), 0; in data set [3] (0.01 mM), 0; in data set [3] (1.0 mM) it was 4. The “% Plaque Reduction” value in the data set on visna virus (1.0 mM) was “Toxic”. This compound also gave an inhibition at 1 µM with visna virus of 47%. 10 µM produced 54% inhibition in the data set on visna virus (0.01 mM). In the data set on visna virus (0.1 mM), the inhibition at 100 µM was found to be 80%.

Regarding `CC(C)C(=O)OC[C@@H]1[C@@H](OC(=O)C(C)C)[C@H](OC(=O)C(C)C)[C@@H](OC(=O)C(C)C)CN1C(=O)Cc1ccccc1` [Example 39, 1,5-(Phenylacetylimino)-1,5-dideoxy-D-glucitol, tetraisobutyrate], the figures for the Toxicity in data set [2] (0.1 mM), in data set [2] (1.0 mM) and in data set [3] (0.01 mM) were 1, 3 and 0, respectively. The compound further showed an inhibition at 10 µM in the data set with visna virus (0.01 mM) of 19%. The inhibition at 100 µM with visna virus (0.1 mM) was 56%. Moreover, the inhibition at 1000 µM in the data set with visna virus (1.0 mM) stood at 95%.

Turning to `CC(=O)OC[C@@H]1[C@@H](OC(C)=O)[C@H](OC(C)=O)[C@@H](OC(C)=O)CN1C(=O)c1ccccc1` [Example 5, 1,5-(Benzoylimino)-1,5-dideoxy-D-glucitol, tetraacetate], the Toxicity in data set [1] (0.1 mM), in data set [1] (0.5 mM) and in data set [1] (1.0 mM) was 0 in each case. The “Antiviral Activity” value in the data set on visna virus (0.1 mM), in the data set on visna virus (0.5 mM) and in the data set on visna virus (1.0 mM) was “A” in each case.

Regarding `CCCC(=O)OC[C@H]1NC[C@H](OC(=O)CCC)[C@@H](OC(=O)CCC)[C@@H]1OC(=O)CCC` [Example 42, 1,5-Dideoxy-1,5-imino-D-glucitol, tetrabutyrate], the Toxicity in data set [2] (0.01 mM) was determined as 1; in data set [2] (0.1 mM), 2; in data set [3] (0.001 mM), 0; in data set [3] (1.0 mM), 4. The compound also returned an inhibition at 1 µM in the data set on visna virus of 31%. In the data set with visna virus (0.01 mM), 10 µM produced 13% inhibition. The compound further showed an inhibition at 100 µM in the data set on visna virus (0.1 mM) of 97%.
